These results are taken from patent US8501911B2, “Methods of reducing inflammation and mucus hypersecretion” (Biomarck Pharmaceuticals, Ltd, priority 1999, dated 2013).

Common to all, as to type: cell-based, human
Assay [1] relates to PP2A. Kind of assay: Protein phosphatase activity assay in NHBE cells, PP2A. Particulars: 8-Br-cGMP as low as 0.1 μM. The procedure:
(§1) To confirm further activation of PP2A by PKG in NHBE cells, cytosolic PP1 and PP2A activities were determined after exposure of the cells to 8-Br-cGMP. […] Accordingly, this PP2A activity appeared critical for mucin secretion to occur; when PKG-induced MARCKS dephosphorylation was blocked by okadaic acid or fostriecin, the secretory response to PKC/PKG activation or UTP stimulation was ameliorated (see Results-I-6-1 and Results-I-6-2, above).
(§2) Protein Phosphatase Activity Assay—PP1 and PP2A activities were measured using a protein phosphatase assay system (Life Technologies, Inc.) as known in the art with slight modification. Huang et al., Adv. Exp. Med. Biol. 396, 209-215 (1996). Briefly, NHBE cells were treated with 8-Br-cGMP or medium alone for 5 min. Cells were then scraped into a lysis buffer (50 mM Tris-HCl (pH 7.4), 0.1% beta-mecaptoethanol, 0.1 mM EDTA, 1 mM benaamidine, 10 μg/ml pepstatin A, 10 μg/ml leupeptin) and disrupted by sonication for 20 s at 4° C. […] Released ^32Pi was counted by scintillation. The protein concentration of each sample was determined by the Bradford assay. PP2A activity was expressed as the sample total phosphatase activity minus the activity remaining in the presence of 1 nM okadaic acid. PP1 activity was expressed as the difference between the activities remaining in the presence of 1 nM and 1 μM okadaic acid, respectively. […]

For assay [2], the system named is PP1. Kind of assay: Protein phosphatase activity assay in NHBE cells, PP1. The note with it: after exposure to 8-Br-cGMP. The procedure: as §1, §2
Assay [3] has as its system MARCKS protein. The assay is described as follows: MARCKS protein level in NHBE cells (Western blot). Particulars: TNF-α 10 ng/ml 4 h. As to the method: NHBE cells were treated with the antisense or the control oligonucleotide for 3 days and then stimulated with PMA (100 nM)+8-Br-cGMP (1 μM) for 15 min. Mucin secretion was analyzed by ELISA. Total RNA and protein were isolated from treated cells. MARCKS mRNA was assessed by Northern hybridization, and protein was assessed by Western blot. […] In this regard, MARCKS mRNA as a percent of control is shown in the following results which are designated as Results-I-3A-2:
Antisense Oligonucleotides—MARCKS antisense oligonucleotide and its corresponding control oligonucleotide were synthesized at Biognostik GmbH (Gottingen, Germany). […] Cells were then incubated with secretagogues, and mucin secretion was measured by ELISA. […] MARCKS mRNA was assessed by Northern hybridization according to conventional procedures using human MARCKS cDNA as a probe. MARCKS protein level was determined by Western blot using purified anti-MARCKS IgG1 (clone 2F12) as the primary detection antibody.
NHBE cells were incubated with 10 ng/ml human recombinant TNF-α or medium alone for 4 hrs, then stimulated with PMA (100 nM)+8-Br-cGMP (1 μM) for 15 min, or UTP (0.1 mM) for 2 hrs. Secreted mucin was collected and measured by ELISA. […] MARCKS mRNA was assessed by Northern hybridization, and protein by the Western Blot technique. […]

For the compound `Nc1nc2c(nc(Br)n2[C@@H]2O[C@@H]3COP(=O)(O)O[C@H]3[C@H]2O)c(=O)[nH]1` [8-Br-cGMP], in assay [1], the “Increase of PP2A activity” value is “approximately 3 fold”. This compound also had a PP2A activity in assay [1] (5 min, baseline 0.1) of 0.3 nmol/mnin/mg proteins. Moreover, the PP1 activity entry in assay [2] is on record as “unchanged”.

Regarding TNF-α, the “Increase in MARCKS protein vs medium only (Western blot)” value in assay [3] was “three- to four-fold increase”. In assay [3] (then PMA 100 nM+8-Br-cGMP 1 μM 15 min), the “MARCKS protein level relative to control” value is 352%.
